Results: ChEMBL document CHEMBL1142532, “Modular synthesis of non-peptidic bivalent NPY Y1 receptor antagonists” (Bioorg Med Chem, 2008)

How the values were obtained:
[1] = molecular target: T1, Neuropeptide Y receptor type 1 (Homo sapiens, UniProt P25929); assay: Displacement of NG-([2,3-3H]propionyl)-BIBP-3226 from NPY Y1 receptor in human SK-N-MC cells; assay type: cell-based
T1 sequence (P25929 whole entry): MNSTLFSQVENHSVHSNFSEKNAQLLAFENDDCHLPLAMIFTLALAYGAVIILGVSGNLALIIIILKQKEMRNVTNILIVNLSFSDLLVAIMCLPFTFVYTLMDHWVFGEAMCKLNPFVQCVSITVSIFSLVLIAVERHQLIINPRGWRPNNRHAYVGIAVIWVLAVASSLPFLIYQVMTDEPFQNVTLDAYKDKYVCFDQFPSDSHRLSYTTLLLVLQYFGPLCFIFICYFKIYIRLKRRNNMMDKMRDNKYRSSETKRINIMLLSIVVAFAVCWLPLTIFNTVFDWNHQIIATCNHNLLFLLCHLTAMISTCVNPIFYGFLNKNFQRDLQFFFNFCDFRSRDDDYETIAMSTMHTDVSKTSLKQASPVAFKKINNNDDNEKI

[2] = molecular target: T2, Neuropeptide Y receptor type 1 (Homo sapiens) (UniProt P25929); assay: Antagonist activity at NPY Y1 receptor in HEL cells assessed as inhibition of NPY-induced increase in intracellular calcium mobilization by Fura-2 assay; assay type: functional, cell-based
T2 sequence (whole entry): T1 sequence (P25929 whole entry)

Row | SMILES | Ki [1] | Kb [2]
1 | N/C(=N/C(=O)CCCn1cc(-c2ccccc2)nn1)NCCC[C@@H](NC(=O)C(c1ccccc1)c1ccccc1)C(=O)NCc1ccc(O)cc1 | 49 nM | 0.9 nM
2 | N/C(=N/C(=O)COCCOCCOCC(=O)/N=C(\N)NCCC[C@@H](NC(=O)C(c1ccccc1)c1ccccc1)C(=O)NCc1ccc(O)cc1)NCCC[C@@H](NC(=O)C(c1ccccc1)c1ccccc1)C(=O)NCc1ccc(O)cc1 | 6.1 nM | 7 nM
3 | N/C(=N/C(=O)c1ccc(Cn2cc(CN(Cc3cn(Cc4ccc(C(=O)/N=C(/N)NCCC[C@@H](NC(=O)C(c5ccccc5)c5ccccc5)C(=O)NCc5ccc(O)cc5)cc4)nn3)Cc3cn(Cc4ccc(C(=O)/N=C(/N)NCCC[C@@H](NC(=O)C(c5ccccc5)c5ccccc5)C(=O)NCc5ccc(O)cc5)cc4)nn3)nn2)cc1)NCCC[C@@H](NC(=O)C(c1ccccc1)c1ccccc1)C(=O)NCc1ccc(O)cc1 | > 50000 nM | 
4 | N/C(=N/C(=O)CCCn1cc(-c2ccc(-c3cn(CCCC(=O)/N=C(\N)NCCC[C@@H](NC(=O)C(c4ccccc4)c4ccccc4)C(=O)NCc4ccc(O)cc4)nn3)cc2)nn1)NCCC[C@@H](NC(=O)C(c1ccccc1)c1ccccc1)C(=O)NCc1ccc(O)cc1 | 43 nM | 0.6 nM
5 | N/C(=N/C(=O)CCCn1cc(COCCOCCOCCOCCOCc2cn(CCCC(=O)/N=C(\N)NCCC[C@@H](NC(=O)C(c3ccccc3)c3ccccc3)C(=O)NCc3ccc(O)cc3)nn2)nn1)NCCC[C@@H](NC(=O)C(c1ccccc1)c1ccccc1)C(=O)NCc1ccc(O)cc1 | 58 nM | 1.8 nM
